Source: patent publication US6413978B1, “Basic derivatives of benz[e] isoindol-1-ones and pyrrolo[3,4-c] quinolin-1-ones with 5-HT3-antagonistic activity, their preparation and their therapeutic use” (Rotta Research Laboratorium S.p.A., priority 1998, dated 2002)
Read-outs that look alike come from different tables or passages of the source.

How the values were obtained:
[1] = molecular target: T1, 5-HT3 receptors (Rattus norvegicus, UniProt P35563); experiment: Affinity for the 5-HT3 receptors, [3H]-BRL43694 (Granisetron) binding
T1 construct: from tissue; host or cells: rat cortex and hippocampus
T1 sequence (P35563 24-483): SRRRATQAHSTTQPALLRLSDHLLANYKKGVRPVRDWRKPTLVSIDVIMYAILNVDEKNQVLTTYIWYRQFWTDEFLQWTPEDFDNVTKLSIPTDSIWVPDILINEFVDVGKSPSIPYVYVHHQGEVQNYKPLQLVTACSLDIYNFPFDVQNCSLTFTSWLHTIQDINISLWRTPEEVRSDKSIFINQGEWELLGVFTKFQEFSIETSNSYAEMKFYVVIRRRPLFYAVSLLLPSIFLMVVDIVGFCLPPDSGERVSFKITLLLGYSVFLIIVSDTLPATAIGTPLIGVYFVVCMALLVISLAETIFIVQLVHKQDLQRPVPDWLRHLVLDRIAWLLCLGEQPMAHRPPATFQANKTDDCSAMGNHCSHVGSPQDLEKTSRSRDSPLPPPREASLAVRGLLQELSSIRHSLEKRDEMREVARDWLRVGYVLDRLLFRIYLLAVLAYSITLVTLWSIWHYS
Description: a) Affinity for the 5-HT3 Receptors
The method of Nelson et al. (Biochem. Pharmacol. 1989, 38, 1693-95) was followed with slight modifications. Rat cortex and hippocampus were used to produce a pellet having a final concentration of 20 mg of tissue/sample. Specific activity of the tracer: 81 Ci/mmole; incubation time: 30 min; incubation temperature: 25° C.

[2] = molecular target: T2, serotonin uptake site (Rattus norvegicus, UniProt P31652); experiment: Affinity for the serotonin uptake site, [3H]-paroxetine binding
T2 construct: from tissue; host or cells: entire rat brain
Description: The method of Plenge et al (Eur. J. Pharmacol., 1990, 189, 129-134) was followed with slight modifications. The entire rat brain was used to produce a pellet having a final concentration of 2 mg of tissue/sample. Specific activity of the tracer: 29.7 Ci/mmole; incubation time: 60 min.; incubation temperature: 25° C.

[3] = molecular target: T3, 5-HT2A Subtype (Rattus norvegicus, UniProt P14842); experiment: Affinity for the 5HT2 receptors, [3H]-ketanserine binding; conditions: for Ki: read-out: Ki ± SE, 5-HT2A Subtype ([3R]-ketanserine)
T3 construct: from tissue; host or cells: rat prefrontal cortex
Description: c) Affinity for the 5HT2 Receptors
The method of Leysen et al (Mol. Pharmacol. 1982, 21, 301-314) was followed with slight modifications. Rat prefrontal cortex was used to produce a pellet having a final concentration of 8 mg of tisssue/sample. Specific activity of the tracer: 80.9 Ci/mmole; incubation time: 20 min; incubation temperature: 37° C.

[4] = molecular target: T4, 5-HT1A receptors (Rattus norvegicus, UniProt P19327); experiment: Affinity for the 5-HT1A receptors, [3H]-8-OH DPAT binding; conditions: for Ki ± SE, 5-HT1A Subtype ([3H]-8OH-DPAT): rat hippocampus, 10 min, 37° C., IN (10^−6M) where no Ki is given
T4 construct: from tissue; host or cells: rat hippocampus
T4 sequence (P19327 1-422): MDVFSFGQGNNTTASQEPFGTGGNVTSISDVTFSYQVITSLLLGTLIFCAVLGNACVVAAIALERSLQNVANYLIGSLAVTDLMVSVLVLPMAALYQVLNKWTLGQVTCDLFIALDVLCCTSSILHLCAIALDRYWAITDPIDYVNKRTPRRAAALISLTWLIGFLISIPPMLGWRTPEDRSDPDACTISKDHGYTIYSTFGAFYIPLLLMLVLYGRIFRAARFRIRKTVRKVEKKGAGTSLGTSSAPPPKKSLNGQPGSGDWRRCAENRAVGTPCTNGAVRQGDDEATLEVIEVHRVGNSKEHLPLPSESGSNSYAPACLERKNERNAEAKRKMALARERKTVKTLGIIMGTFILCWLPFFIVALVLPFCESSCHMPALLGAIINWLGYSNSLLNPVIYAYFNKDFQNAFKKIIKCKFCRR
Description: d) Affinity for the 5-HT1A Receptors
The method of Hall et al (J. Neurochem. 1985, 44, 1685-1696) was followed with slight modifications. Rat hippocampus was used to produce a pellet having a final concentration of 4 mg of tissue/sample. Specific activity of the tracer: 137 Ci/mmole; incubation time 10 min; incubation temperature: 37° C.

[5] = entire rat brain, 60 min, 25° C., read-out: Ki ± SE, 5-HT Uptake ([3H]-paroxetin)
[6] = rat prefrontal cortex, 20 min, 37° C., IN (10^−6M) where no Ki is given

T2 sequence (P31652 whole entry): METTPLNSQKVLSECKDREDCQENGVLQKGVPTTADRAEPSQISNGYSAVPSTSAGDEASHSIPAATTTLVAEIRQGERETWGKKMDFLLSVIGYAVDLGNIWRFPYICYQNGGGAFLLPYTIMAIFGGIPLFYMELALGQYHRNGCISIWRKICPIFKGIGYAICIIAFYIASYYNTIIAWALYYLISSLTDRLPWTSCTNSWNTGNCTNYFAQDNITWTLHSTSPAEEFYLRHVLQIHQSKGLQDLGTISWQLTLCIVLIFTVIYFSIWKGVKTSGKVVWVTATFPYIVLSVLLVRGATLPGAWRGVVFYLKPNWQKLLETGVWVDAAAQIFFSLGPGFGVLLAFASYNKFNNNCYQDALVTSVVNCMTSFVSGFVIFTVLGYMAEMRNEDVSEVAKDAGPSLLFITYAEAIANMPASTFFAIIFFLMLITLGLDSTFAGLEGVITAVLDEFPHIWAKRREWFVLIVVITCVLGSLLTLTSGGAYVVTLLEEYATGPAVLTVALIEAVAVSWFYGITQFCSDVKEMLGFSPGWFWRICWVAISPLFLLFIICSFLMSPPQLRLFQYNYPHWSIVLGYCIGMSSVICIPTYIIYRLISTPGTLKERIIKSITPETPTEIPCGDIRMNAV
T3 sequence (P14842 whole entry): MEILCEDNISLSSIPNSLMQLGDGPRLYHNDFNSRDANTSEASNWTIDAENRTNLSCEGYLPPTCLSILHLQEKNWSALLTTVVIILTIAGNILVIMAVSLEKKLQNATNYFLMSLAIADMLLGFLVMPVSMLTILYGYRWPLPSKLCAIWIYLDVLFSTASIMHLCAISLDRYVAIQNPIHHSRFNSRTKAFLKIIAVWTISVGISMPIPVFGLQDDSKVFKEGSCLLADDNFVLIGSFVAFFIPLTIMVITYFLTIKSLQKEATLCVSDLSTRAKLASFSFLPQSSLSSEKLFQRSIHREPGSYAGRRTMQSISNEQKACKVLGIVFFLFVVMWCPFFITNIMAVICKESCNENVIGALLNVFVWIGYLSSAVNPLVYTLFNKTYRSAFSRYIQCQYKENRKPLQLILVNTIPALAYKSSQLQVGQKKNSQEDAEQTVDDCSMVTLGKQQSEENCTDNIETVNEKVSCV

| Compound | Ki [1] [nM] | Ki ± SE, 5-HT1A Subtype ([3H]-8OH-DPAT) [4] | melting point [°C] | Ki [2, 5] [nM] | Ki ± SE, 5-HT2A Subtype ([3R]-ketanserine) [3, 6] | other results |
| --- | --- | --- | --- | --- | --- | --- |
| O=C1c2c(ccc3ccccc23)CN1C1CN2CCC1CC2 (racemic) [Compound 6, (R,S)-2-[1-azadicyclo[2.2.2]oct-3-yl]-2,3-dihydro-1H-benz[e]isoindol-1-one] | 0.7 ± 0.08 | IN (10^−6M) | 153 to 154 | – | – | Ki [2]: 95.8 ± 9.6 nM; Ki [3]: 26500 ± 8700 nM |
| O=C1c2c(cnc3ccccc23)CN1C1CN2CCC1CC2 (racemic) [Compound 9, (R,S)-2-[1-azadicyclo[2.2.2]oct-3-yl]-2,3-dihydro-1H-pyrrolo[3,4-c]quinolin-1-one] | 1.6 ± 0.6 | IN (10^−6M) | – | 124 ± 22 | IN (10^−6M) | – |
| O=[N+]([O-])c1ccc2nc(N3CCNCC3)ccc2c1 [6-NO2-quipazine, reference compound] | – | – | – | 0.12 ± 0.01 | – | – |
| CN1[C@@H]2CC[C@H]1C[C@@H](N1Cc3ccc4ccccc4c3C1=O)C2 [Compound 1] | 1 ± 0.2 | – | – | 632 ± 51 | – | Ki [3]: 21100 ± 2300 nM; Ki ([4]; read-out: Ki ± SE, 5-HT1A Subtype ([3H]-8OH-DPAT)): 30600 ± 6460 nM |
| CN1[C@@H]2CC[C@H]1C[C@@H](N1Cc3cnc4ccccc4c3C1=O)C2 [Compound 2, endo-2-[8-methyl-8-azadicyclo[3.2.1]oct-3-yl]-2,3-dihydro-1H-pyrrolo[3,4-c]quinolin-1-one] | 1.3 ± 0.2 | IN (10^−6M) | 153 to 154 | 503 ± 86 | IN (10^−6M) | – |
| CN1[C@@H]2CC[C@H]1C[C@@H](N1Cc3c(Cl)nc4ccccc4c3C1=O)C2 [Compound 3, endo-2-[8-methyl-8-azadicyclo[3.2.1]oct-3-yl]-2,3-dihydro-4-chloro-1H-pyrrolo[3,4-c]quinolin-1-one] | 2.6 ± 0.4 | IN (10^−6M) | 169 to 171 | 175 ± 30 | IN (10^−6M) | – |
| CCCOc1nc2ccccc2c2c1CN(C1CC3CCC(C1)N3C)C2=O (stereo not drawn) [Compound 4, endo-2-[8-methyl-8-azadicyclo[3.2.1]oct-3-yl]-2,3-dihydro-4-propoxy-1H-pyrrolo[3,4-c]quinolin-1-one] | 0.7 ± 0.2 | IN (10^−6M) | 170 to 171 | 108 ± 15 | IN (10^−6M) | – |
| CN1[C@@H]2CC[C@H]1C[C@@H](N1Cc3c(O)nc4ccccc4c3C1=O)C2 [Compound 5, endo-2-[8-methyl-8-azadicyclo[3.2.1]oct-3-yl]-2,3-dihydro-4-hydroxy-1H-pyrrolo[3,4-c]quinolin-1-one] | 0.9 ± 0.06 | IN (10^−6M) | 245 to 246 | 485 ± 37 | IN (10^−6M) | – |
| O=C1c2c(ccc3ccccc23)CN1[C@@H]1CN2CCC1CC2 [Compound 7, (S)-2-[1-azadicyclo[2.2.2]oct-3-yl]-2,3-dihydro-1H-benz[e]isoindol-1-one] | 0.3 ± 0.09 | – | 152 to 154 | – | – | affinity for the 5-HT3 receptor (in words) [1]: sub-nanomolar |
| O=C1c2c(ccc3ccccc23)CN1[C@H]1CN2CCC1CC2 [Compound 8, (R)-2-[1-azadicyclo[2.2.2]oct-3-yl]-2,3-dihydro-1H-benz[e]isoindol-1-one] | 1.8 ± 0.5 | – | 155 to 157 | – | – | – |
| CN1[C@@H]2CC[C@H]1C[C@H](N1Cc3ccc4ccccc4c3C1=O)C2 [Compound 10, reference compound] | 85.5 ± 16 | – | – | – | – | less active than Compound 1 at the 5HT3 receptor ([1]; relative to Compound 1): ~2 orders of logarithmic magnitude |
| CN1[C@@H]2CC[C@H]1C[C@@H](N1Cc3nc4ccccc4cc3C1=O)C2 [Compound 11, endo-2-[8-methyl-8-azadicyclo[3.2.1]oct-3-yl]-2,3-dihydro-1H-pyrrolo[3,4-b]quinolin-1-one, reference compound] | 87 ± 37 | – | – | – | – | less active than Compound 2 at the 5HT3 receptor ([1]; relative to Compound 2): approximately 60 times |
| c1ccc2nc(N3CCNCC3)ccc2c1 [quipazine, reference compound] | – | – | – | 31.3 ± 2.9 | – | Ki [3, 6]: 1810 ± 476 nM |
